Assay results as given in patent US10576105B2, “Mesenchymal stem cells with enhanced immunosuppressive capability” (Escape Therapeutics, Inc., priority 2015, dated 2020).

Tests used:
Type in all cases: cell-based, human
[1] = test system: HLA-G1; test: HLA-G1 transcript expression in BMSCs by semi-quantitative RT-PCR; settings: mean±SEM
Method: (§1) Adult BMSCs (passage 2) were obtained from Cell Applications, Inc. (San Diego, Calif.) and cultured in alpha-minimum essential medium (α-MEM) (Invitrogen) supplemented with 10% FBS and 1% penicillin/streptomycin (Invitrogen) at 37° C. in a humidified 5% CO2 incubator. At 70-80% confluence, cells were harvested with 0.25% trypsin-EDTA (Invitrogen) and expanded at 1:3 split ratios.
(§2) Demethylating treatment was carried out by culturing MSCs for 72 h with 5-aza-2′-deoxycytidine (5-aza-dC) (Sigma) at a final concentration of 10 μM or with the solvent DMSO as control.
(§3) After 72 h treatment, cells were trypsinized and total RNA extracted using RNeasy kit (Qiagen, Valencia, Calif.) according to the manufacturer's protocol. Semi-quantitative RT-PCR reactions were performed on a DNA Engine Peltier Thermal Cycler (Bio-Rad, Hercules, Calif.) as previously described. M. D. Nicola, et al., Human bone marrow stromal cells suppress T-lymphocyte proliferation induced by cellular or non-specific mitogenic stimuli, Blood 99: 3838-3843 (2002). Briefly, first strand cDNA was synthesized in 50 μl reactions from 2 μg total RNA using oligo dT primers and TaqMan reverse transcription reagents (Applied Biosystems, Foster City, Calif.). Reverse transcription (RT) reactions were carried out at 24° C. for 10 min, 48° C. for 1 h, and heat inactivation at 95° C. for 5 min. […] PCR program consisted of 94° C. for 4 min, followed by 30 cycles at 94° C. for 30 s, 60° C. for 1 min, and 72° C. for 1 min with a final extension at 72° C. for 10 min. PCR products were separated using 1.5% agarose gel in the presence of 0.5 μg/ml ethidium bromide and imaged using the FluorChem® HD2 Imaging System (Alpha Innotech Corporation, San Leandro, Calif.). Densitometry analysis was performed using AlphaEase FC software (Alpha Innotech Corporation). […]
(§4) Total RNA was extracted from both treated and untreated cells, and HLA-G1 and -G3 transcripts analyzed by semi-quantitative RT-PCR.
(§5) MSCs were treated with Valproic acid (VPA) (a known histone deacetylase inhibitor (HDAC) inhibitor) and HLA-G1, -G3 and HLA-G5 transcripts were evaluated by semi-quantitative RT-PCR.

[2] = test system: HLA-G3; test: HLA-G3 transcript expression in BMSCs by semi-quantitative RT-PCR; settings: mean±SEM
Method: as §1, §2
After 72 h treatment, cells were trypsinized and total RNA extracted using RNeasy kit (Qiagen, Valencia, Calif.) according to the manufacturer's protocol. Semi-quantitative RT-PCR reactions were performed on a DNA Engine Peltier Thermal Cycler (Bio-Rad, Hercules, Calif.) as previously described. M. D. Nicola, et al., Human bone marrow stromal cells suppress T-lymphocyte proliferation induced by cellular or non-specific mitogenic stimuli, Blood 99: 3838-3843 (2002). Briefly, first strand cDNA was synthesized in 50 μl reactions from 2 μg total RNA using oligo dT primers and TaqMan reverse transcription reagents (Applied Biosystems, Foster City, Calif.). Reverse transcription (RT) reactions were carried out at 24° C. for 10 min, 48° C. for 1 h, and heat inactivation at 95° C. for 5 min. RT samples were diluted at 1:4 in DNase, RNase free water and PCR performed in 20 μl reaction using Taq PCR master mix (Qiagen), 1 μl of diluted template, and HLA-G primers (Table 1). β-actin was used as an internal control. PCR program consisted of 94° C. for 4 min, followed by 30 cycles at 94° C. for 30 s, 60° C. for 1 min, and 72° C. for 1 min with a final extension at 72° C. for 10 min. PCR products were separated using 1.5% agarose gel in the presence of 0.5 μg/ml ethidium bromide and imaged using the FluorChem® HD2 Imaging System (Alpha Innotech Corporation, San Leandro, Calif.). Densitometry analysis was performed using AlphaEase FC software (Alpha Innotech Corporation). Relative expression levels were calculated from the ratio of integrated density values of HLA-G to that of β-actin.
as §4, §5

[3] = test system: HLA-G1; test: HLA-G1 transcript expression in AMSCs by semi-quantitative RT-PCR; settings: for Relative HLA-G1 expression: 10 μM for 72 h, ratio HLA-G to β-actin, mean±SEM, 3 experiments
Method: AMSCs were isolated from adult human lipoaspirate of patients undergoing liposuction procedure. Briefly, abdominal subcutaneous adipose samples were washed with Hanks' balanced salt solutions (HBSS) (Invitrogen, Carlsbad, Calif.). After gentle shaking, the lower phase (containing stem cells, adipocytes, and blood) was washed and enzymatically dissociated with 0.075% collagenase type I (Sigma-Aldrich, St. Louis, Mo.)/HBSS for 1 h at 37° C. with gentle shaking. Collagenase was inactivated by adding fetal bovine serum (FBS) and samples were centrifuged at 400 g for 10 min at 25° C. The pellet was resuspended in RBC lysis buffer (eBioscience, San Diego, Calif.) and adherent cell masses were removed by sequential passing through 100, 70, and 40 μm mesh filters. Cells were then added into equal amounts of HISTOPAQUE-1077 (Sigma) and centrifuged at 400 g for 30 min to separate MSCs. Cells were seeded at 1-2×10^4 cells/cm^2 and grown in Dulbecco's modified eagle medium (DMEM, Invitrogen) supplemented with 10% FBS and 1% penicillin/streptomycin (Invitrogen) at 37° C. in a humidified 5% CO2 incubator and media changed every 2-3 d. After reaching 70-80% confluence, cells were washed with phosphate buffered saline (PBS), detached with 0.25% trypsin-EDTA (Invitrogen), then centrifuged and expanded at 1:3 split ratios. […]
After 72 h treatment, cells were trypsinized and total RNA extracted using RNeasy kit (Qiagen, Valencia, Calif.) according to the manufacturer's protocol. Semi-quantitative RT-PCR reactions were performed on a DNA Engine Peltier Thermal Cycler (Bio-Rad, Hercules, Calif.) as previously described. […] Relative expression levels were calculated from the ratio of integrated density values of HLA-G to that of β-actin.
as §4, §5

[4] = test system: HLA-G3; test: HLA-G3 transcript expression in AMSCs by semi-quantitative RT-PCR; settings: for Relative HLA-G3 expression: ratio HLA-G to β-actin, mean±SEM, 3 experiments
Method: (§6) AMSCs were isolated from adult human lipoaspirate of patients undergoing liposuction procedure. Briefly, abdominal subcutaneous adipose samples were washed with Hanks' balanced salt solutions (HBSS) (Invitrogen, Carlsbad, Calif.). After gentle shaking, the lower phase (containing stem cells, adipocytes, and blood) was washed and enzymatically dissociated with 0.075% collagenase type I (Sigma-Aldrich, St. Louis, Mo.)/HBSS for 1 h at 37° C. with gentle shaking. Collagenase was inactivated by adding fetal bovine serum (FBS) and samples were centrifuged at 400 g for 10 min at 25° C. The pellet was resuspended in RBC lysis buffer (eBioscience, San Diego, Calif.) and adherent cell masses were removed by sequential passing through 100, 70, and 40 μm mesh filters. Cells were then added into equal amounts of HISTOPAQUE-1077 (Sigma) and centrifuged at 400 g for 30 min to separate MSCs. Cells were seeded at 1-2×10^4 cells/cm^2 and grown in Dulbecco's modified eagle medium (DMEM, Invitrogen) supplemented with 10% FBS and 1% penicillin/streptomycin (Invitrogen) at 37° C. in a humidified 5% CO2 incubator and media changed every 2-3 d. After reaching 70-80% confluence, cells were washed with phosphate buffered saline (PBS), detached with 0.25% trypsin-EDTA (Invitrogen), then centrifuged and expanded at 1:3 split ratios.
as §2
After 72 h treatment, cells were trypsinized and total RNA extracted using RNeasy kit (Qiagen, Valencia, Calif.) according to the manufacturer's protocol. Semi-quantitative RT-PCR reactions were performed on a DNA Engine Peltier Thermal Cycler (Bio-Rad, Hercules, Calif.) as previously described. M. D. Nicola, et al., Human bone marrow stromal cells suppress T-lymphocyte proliferation induced by cellular or non-specific mitogenic stimuli, Blood 99: 3838-3843 (2002). Briefly, first strand cDNA was synthesized in 50 μl reactions from 2 μg total RNA using oligo dT primers and TaqMan reverse transcription reagents (Applied Biosystems, Foster City, Calif.). Reverse transcription (RT) reactions were carried out at 24° C. for 10 min, 48° C. for 1 h, and heat inactivation at 95° C. for 5 min. […] Relative expression levels were calculated from the ratio of integrated density values of HLA-G to that of β-actin.
as §4, §5

[5] = test system: HLA-G5; test: HLA-G5 mRNA level in BMSCs by RT-PCR; settings: band intensity HLA-G5 divided by β2M, means±SEM, 3 runs
Method: as §1
as §3, with “min.” for “min. PCR products were separated using 1.5% agarose gel in the presence of 0.5 μg/ml ethidium bromide and imaged using the FluorChem® HD2 Imaging System (Alpha Innotech Corporation, San Leandro, Calif.). Densitometry analysis was performed using AlphaEase FC software (Alpha Innotech Corporation).”

[6] = test system: HLA-G5; test: HLA-G5 mRNA level in AMSCs by RT-PCR; settings: for Relative expression of HLA-G5: AMSCs, band intensity HLA-G5 divided by β2M, means±SEM, 3 runs
Method: as §6
After 72 h treatment, cells were trypsinized and total RNA extracted using RNeasy kit (Qiagen, Valencia, Calif.) according to the manufacturer's protocol. Semi-quantitative RT-PCR reactions were performed on a DNA Engine Peltier Thermal Cycler (Bio-Rad, Hercules, Calif.) as previously described. M. D. Nicola, et al., Human bone marrow stromal cells suppress T-lymphocyte proliferation induced by cellular or non-specific mitogenic stimuli, Blood 99: 3838-3843 (2002). Briefly, first strand cDNA was synthesized in 50 μl reactions from 2 μg total RNA using oligo dT primers and TaqMan reverse transcription reagents (Applied Biosystems, Foster City, Calif.). […]

[7] = BMSCs passage 5 (P5), 10 μM for 72 h, ratio HLA-G to β-actin, 3 experiments
[8] = BMSCs passage 10 (P10), 10 μM for 72 h, ratio HLA-G to β-actin, 3 experiments

Row | Structure (SMILES) | Relative HLA-G1 expression [1, 7] | Relative HLA-G1 expression [1, 8] | Relative HLA-G3 expression [2, 7] | Relative HLA-G3 expression [2, 8] | Relative HLA-G1 expression ([3]; AMSCs passage 5 (P5)) | Relative HLA-G1 expression ([3]; AMSCs passage 10 (P10)) | Relative HLA-G3 expression, fold higher than untreated ([4]; AMSCs P5 and P10, 10 μM for 72 h, treated versus untreated) | Relative HLA-G3 expression ([4]; AMSCs passage 5 (P5), 10 μM for 72 h) | Relative HLA-G3 expression ([4]; AMSCs passage 10 (P10), 10 μM for 72 h) | Relative expression of HLA-G5 [5] | Relative expression of HLA-G5 [6] | Relative HLA-G1 expression ([1]; VPA-treated BMSCs passage 5 (P5), relative to β2M (FIG. 5A)) | Relative HLA-G1 expression ([1]; VPA-treated BMSCs passage 10 (P10), relative to β2M (FIG. 5A)) | Relative HLA-G3 expression ([2]; VPA-treated BMSCs passage 5 (P5), FIG. 5B) | Relative HLA-G3 expression ([2]; VPA-treated BMSCs passage 10 (P10), FIG. 5B) | Upregulation of HLA-G1 mRNA ([3]; AMSCs treated with VPA, P5 and P10 (FIG. 5C)) | Upregulation of HLA-G3 mRNA ([4]; AMSCs treated with VPA, P5 and P10 (FIG. 5D)) | Upregulation of HLA-G5 mRNA ([6]; AMSCs treated with VPA (Table 2))
1 | Nc1ncn([C@H]2C[C@H](O)[C@@H](CO)O2)c(=O)n1 [5-aza-dC, 4-amino-1-(2-deoxy-b-D-erythro-pentofuranosyl)-1,3,5-triazin-2(1H)-one] | 0.16±0.01 | 0.24±0.01 | 0.33±0.08 | 0.38±0.07 | 0.15±0.02 | 0.23±0.19 | ~2 fold | 0.31±0.05 | 0.27±0.06 | 0.009 ± 0.00 | 0.009 ± 0.001 | – | – | – | – | – | – | –
2 | CCCC(CCC)C(=O)O [VPA, Valproic acid] | – | – | – | – | – | – | – | – | – | 0.006 ± 0.004 | 0.006 ± 0.00 | 0.08±0.02 | 0.05±0.002 | 0.04±0.01 | 0.01±0.001 | no upregulation | no upregulation | no upregulation
